From PubChem BioAssay AID1918945 (Molecular Pharmacology Branch, DTP, NCI, 2023)

Test system: 883617-216-R-J1-PDC complex spheroid viability
Test: Anticancer human tumor 883617-216-R-J1-PDC patient-derived bladder carcinoma cell line growth inhibition
Conditions: for IC50: curve of first compound; for viability, T/C: stronger effect = lower value
How it was run: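 Drug combinations with the LSD1 inhibitor iadademstat tested on tumor cells co-cultured as spheroids with endothelial cells and mesenchymal stem cells. Concentrations descended in half-log increments from clinical Cmax or 10 microM.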

[1] = second compound 0.1 µM, first compound 0.00316 µM
[2] = second compound 0.1 µM, first compound 0.01 µM
[3] = second compound 0.1 µM, first compound 0.0316 µM
[4] = second compound 0.1 µM, first compound 0.1 µM
[5] = second compound 0.1 µM, first compound 0.316 µM
[6] = second compound 0.1 µM, first compound 1 µM
[7] = second compound 0.316 µM, first compound 0.00316 µM
[8] = second compound 0.316 µM, first compound 0.01 µM
[9] = second compound 0.316 µM, first compound 0.0316 µM
[10] = second compound 0.316 µM, first compound 0.1 µM
[11] = second compound 0.316 µM, first compound 0.316 µM
[12] = second compound 0.316 µM, first compound 1 µM
[13] = second compound 1 µM, first compound 0.00316 µM
[14] = second compound 1 µM, first compound 0.01 µM
[15] = second compound 1 µM, first compound 0.0316 µM
[16] = second compound 1 µM, first compound 0.1 µM
[17] = second compound 1 µM, first compound 0.316 µM
[18] = second compound 1 µM, first compound 1 µM
[19] = second compound 3.16 µM, first compound 0.00316 µM
[20] = second compound 3.16 µM, first compound 0.01 µM
[21] = second compound 3.16 µM, first compound 0.0316 µM
[22] = second compound 3.16 µM, first compound 0.1 µM
[23] = second compound 3.16 µM, first compound 0.316 µM
[24] = second compound 3.16 µM, first compound 1 µM
[25] = second compound 10 µM, first compound 0.00316 µM
[26] = second compound 10 µM, first compound 0.01 µM
[27] = second compound 10 µM, first compound 0.0316 µM
[28] = second compound 10 µM, first compound 0.1 µM
[29] = second compound 10 µM, first compound 0.316 µM
[30] = second compound 10 µM, first compound 1 µM
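Note: exposure lasted seven days after three days of spheroid growth.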
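Throughout, for viability, T/C: 100% = DMSO vehicle control luminescence.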

For `O=C(C=Cn1cnc(-c2cc(C(F)(F)F)cc(C(F)(F)F)c2)n1)NNc1cnccn1` + NC1CC1c1ccc(-c2cccc(O)c2)cc1, the IC50 (second compound 0.1 µM) was 6.13 nM, the IC50 (second compound 0.316 µM) was 5.37 nM and the IC50 (second compound 1 µM) was 5.18 nM. It also gave an IC50 (second compound 3.16 µM) of 5.05 nM, an IC50 (second compound 10 µM) of 4.37 nM and a viability, T/C [1] of 76.8%. It also gave a viability, T/C [2] of 28.8%, a viability, T/C [3] of 23.8% and a viability, T/C [4] of 17.6%. It also gave a viability, T/C [5] of 15.6%, a viability, T/C [6] of 15.6% and a viability, T/C [7] of 65.9%. For the same compound, the viability, T/C [8] was 31.3%, the viability, T/C [9] was 19.1% and the viability, T/C [10] was 14.8%. It also gave a viability, T/C [11] of 16%, a viability, T/C [12] of 14.3% and a viability, T/C [13] of 66.5%. The viability, T/C [14] was 28.1%, the viability, T/C [15] was 18.4% and the viability, T/C [16] was 15.9%. The viability, T/C [17] was 16.3%, the viability, T/C [18] was 15.5% and the viability, T/C [19] was 65.1%. It also gave a viability, T/C [20] of 28.1%, a viability, T/C [21] of 17.5% and a viability, T/C [22] of 16%. It also gave a viability, T/C [23] of 14.6%, a viability, T/C [24] of 14.3% and a viability, T/C [25] of 60%. For the same compound, the viability, T/C [26] was 24.8%, the viability, T/C [27] was 18.2% and the viability, T/C [28] was 15.1%. It also gave a viability, T/C [29] of 15.4% and a viability, T/C [30] of 15.8%.

For `COc1cc(C2c3cc4c(cc3C(OC3OC5COC(C)OC5C(O)C3O)C3COC(=O)C23)OCO4)cc(OC)c1O` (stereo not given) + NC1CCC(NC2CC2c2ccccc2)CC1, the IC50 (second compound 0.1 µM) was 377 nM, the IC50 (second compound 0.316 µM) was 645 nM and the IC50 (second compound 1 µM) was 830 nM. For the same compound, the IC50 (second compound 3.16 µM) was 587 nM, the IC50 (second compound 10 µM) was 1750 nM and the viability, T/C (second compound 0.1 µM, first compound 0.00949 µM) was 96.9%. The viability, T/C (second compound 0.1 µM, first compound 0.03 µM) was 94.1%, the viability, T/C (second compound 0.1 µM, first compound 0.0949 µM) was 72.5% and the viability, T/C (second compound 0.1 µM, first compound 0.3 µM) was 51.6%. It also gave a viability, T/C (second compound 0.1 µM, first compound 0.949 µM) of 45.8%, a viability, T/C (second compound 0.1 µM, first compound 3 µM) of 38.3% and a viability, T/C (second compound 0.316 µM, first compound 0.00949 µM) of 101%. For the same compound, the viability, T/C (second compound 0.316 µM, first compound 0.03 µM) was 94%, the viability, T/C (second compound 0.316 µM, first compound 0.0949 µM) was 80.1% and the viability, T/C (second compound 0.316 µM, first compound 0.3 µM) was 51.4%. For the same compound, the viability, T/C (second compound 0.316 µM, first compound 0.949 µM) was 54%, the viability, T/C (second compound 0.316 µM, first compound 3 µM) was 43.4% and the viability, T/C (second compound 1 µM, first compound 0.00949 µM) was 104%. It also gave a viability, T/C (second compound 1 µM, first compound 0.03 µM) of 83%, a viability, T/C (second compound 1 µM, first compound 0.0949 µM) of 67.3% and a viability, T/C (second compound 1 µM, first compound 0.3 µM) of 56.2%. The viability, T/C (second compound 1 µM, first compound 0.949 µM) was 49.2%, the viability, T/C (second compound 1 µM, first compound 3 µM) was 44.6% and the viability, T/C (second compound 3.16 µM, first compound 0.00949 µM) was 106%. It also gave a viability, T/C (second compound 3.16 µM, first compound 0.03 µM) of 95.5%, a viability, T/C (second compound 3.16 µM, first compound 0.0949 µM) of 70.9% and a viability, T/C (second compound 3.16 µM, first compound 0.3 µM) of 53.2%. For the same compound, the viability, T/C (second compound 3.16 µM, first compound 0.949 µM) was 51.8%, the viability, T/C (second compound 3.16 µM, first compound 3 µM) was 41.8% and the viability, T/C (second compound 10 µM, first compound 0.00949 µM) was 122%. The viability, T/C (second compound 10 µM, first compound 0.03 µM) was 99.8%, the viability, T/C (second compound 10 µM, first compound 0.0949 µM) was 75.4% and the viability, T/C (second compound 10 µM, first compound 0.3 µM) was 60.2%. It also gave a viability, T/C (second compound 10 µM, first compound 0.949 µM) of 56.4% and a viability, T/C (second compound 10 µM, first compound 3 µM) of 45.6%.

`Nc1ncn(C2CC(O)C(CO)O2)c(=O)n1` (stereo not given) + NC1CCC(NC2CC2c2ccccc2)CC1 was tested, and the IC50 (second compound 0.1 µM) was > 1000 nM, the IC50 (second compound 0.316 µM) was > 1000 nM and the IC50 (second compound 1 µM) was > 1000 nM. The IC50 (second compound 3.16 µM) was > 1000 nM, the IC50 (second compound 10 µM) was > 1000 nM and the viability, T/C [1] was 109%. The viability, T/C [2] was 99.4%, the viability, T/C [3] was 94.7% and the viability, T/C [4] was 78.1%. The viability, T/C [5] was 72.6%, the viability, T/C [6] was 62.4% and the viability, T/C [7] was 103%. It also gave a viability, T/C [8] of 115%, a viability, T/C [9] of 102% and a viability, T/C [10] of 89.8%. It also gave a viability, T/C [11] of 79.4%, a viability, T/C [12] of 67.1% and a viability, T/C [13] of 103%. It also gave a viability, T/C [14] of 98.8%, a viability, T/C [15] of 96.7% and a viability, T/C [16] of 89.6%. For the same compound, the viability, T/C [17] was 77.7%, the viability, T/C [18] was 69.6% and the viability, T/C [19] was 108%. For the same compound, the viability, T/C [20] was 100%, the viability, T/C [21] was 92.4% and the viability, T/C [22] was 84.8%. The viability, T/C [23] was 78.6%, the viability, T/C [24] was 66.9% and the viability, T/C [25] was 101%. It also gave a viability, T/C [26] of 106%, a viability, T/C [27] of 108% and a viability, T/C [28] of 92.3%. For the same compound, the viability, T/C [29] was 93.8% and the viability, T/C [30] was 77.6%.
